Test results published in the supplement of paper PMC10307832.

Assays:
Assay in all cases: relative viability (nuclei count vs DMSO), 5 days (fraction); higher = more cells survive
[1] = compound: Cn1cc(-c2cnn3c(N)c(Br)c([C@@H]4CCCNC4)nc23)cn1 + O=C(CCCCCCC(=O)Nc1ccccc1)NO [Vorinostat] (partner 1 µM)
In short: (§1)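 Lung cancer cell lines in 1536-well plates were dosed by pin tool the day after seeding, either with one drug alone or with a fixed anchor-drug dose plus five library-drug doses (not always all listed) in √10 steps. After 5 days, cells were fixed and their nuclei stained in one step (final 0.05% Triton X-100, 1% formaldehyde, 1 ug/ml Hoechst), then counted on 4× images. Relative viability is the nuclei count in treated wells divided by that in vehicle wells. Values are medians of duplicate plates.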

[2] = compound: Cn1cc(-c2cnn3c(N)c(Br)c([C@@H]4CCCNC4)nc23)cn1 + C[C@]1(O)C[C@@H](c2nc(-c3ccc4ccc(-c5ccccc5)nc4c3)c3c(N)nccn32)C1 [Linsitinib] (partner 1 µM)
In short: as §1

[3] = compound: Cn1cc(-c2cnn3c(N)c(Br)c([C@@H]4CCCNC4)nc23)cn1 + CC1(C)CCC(c2ccc(Cl)cc2)=C(CN2CCN(c3ccc(C(=O)NS(=O)(=O)c4ccc(N[C@H](CCN5CCOCC5)CSc5ccccc5)c(S(=O)(=O)C(F)(F)F)c4)cc3)CC2)C1 [Navitoclax] (partner 0.5 µM)
In short: as §1

[4] = compound: Cn1cc(-c2cnn3c(N)c(Br)c([C@@H]4CCCNC4)nc23)cn1 + Cc1nc(NC(=O)N2CCC[C@H]2C(N)=O)sc1-c1ccnc(C(C)(C)C(F)(F)F)c1 [Alpelisib] (partner 2 µM)
In short: as §1

| Cell Line | relative viability ([1]; first compound 0.05 µM) | relative viability ([1]; first compound 0.1581 µM) | relative viability ([1]; first compound 0.5 µM) | relative viability ([1]; first compound 1.581 µM) | relative viability ([1]; first compound 5 µM) | relative viability ([2]; first compound 0.05 µM) | relative viability ([2]; first compound 0.1581 µM) | relative viability ([2]; first compound 0.5 µM) | relative viability ([2]; first compound 1.581 µM) | relative viability ([2]; first compound 5 µM) | relative viability ([3]; first compound 0.05 µM) | relative viability ([3]; first compound 0.1581 µM) | relative viability ([3]; first compound 0.5 µM) | relative viability ([3]; first compound 1.581 µM) | relative viability ([3]; first compound 5 µM) | relative viability ([4]; first compound 0.05 µM) | relative viability ([4]; first compound 0.1581 µM) | relative viability ([4]; first compound 0.5 µM) | relative viability ([4]; first compound 1.581 µM) | relative viability ([4]; first compound 5 µM) |
| --- | --- | --- | --- | --- | --- | --- | --- | --- | --- | --- | --- | --- | --- | --- | --- | --- | --- | --- | --- | --- |
| NCI-H1793 | 0.839 | 0.717 | 0.856 | 0.469 | 0.181 | 0.983 | 1.18 | 0.87 | 0.83 | 0.513 | 0.43 | 0.517 | 0.386 | 0.383 | 0.292 | 0.773 | 0.878 | 0.709 | 0.666 | 0.58 |
| NCI-H1395 | 0.533 | 0.427 | 0.556 | 0.49 | 0.317 | 1.19 | 0.679 | 1.11 | 0.616 | 0.431 | 1.18 | 0.698 | 0.953 | 0.68 | 0.423 | 1.18 | 0.685 | 0.874 | 0.66 | 0.435 |
| HCC-827 | 0.741 | 0.929 | 1.02 | 0.917 | 0.797 | 0.934 | 0.958 | 0.947 | 1.05 | 0.953 | 1.03 | 1.04 | 1.04 | 1.01 | 0.99 | 0.992 | 1.04 | 1.03 | 1.06 | 1.06 |
| NCI-H2228 | 0.636 | 0.592 | 0.507 | 0.345 | 0.155 | 0.975 | 0.895 | 0.628 | 0.586 | 0.459 | 1.09 | 1.12 | 1.13 | 0.64 | 0.481 | 0.794 | 1.15 | 0.87 | 0.541 | 0.372 |
| EMC-BAC-2 | 0.275 | 0.351 | 0.35 | 0.46 | 0.23 | 0.834 | 0.904 | 0.849 | 0.663 | 0.836 | 1.26 | 1.25 | 1.14 | 1.01 | 1.43 | 0.778 | 0.885 | 0.66 | 0.708 | 0.81 |
| NCI-H23 | 0.547 | 0.508 | 0.424 | 0.206 | 0.125 | 0.575 | 0.642 | 0.466 | 0.449 | 0.244 | 1.01 | 1.04 | 0.72 | 0.602 | 0.342 | 0.741 | 0.717 | 0.613 | 0.667 | 0.227 |
| RERF-LC-KJ | 0.636 | 0.808 | 0.802 | 0.599 | 0.6 | 0.932 | 0.936 | 0.914 | 0.809 | 0.749 | 1.2 | 0.927 | 0.884 | 0.707 | 0.678 | 0.849 | 0.846 | 0.892 | 0.708 | 0.717 |
| LC-2-ad | 0.683 | 0.808 | 0.662 | 0.76 | 0.735 | 0.907 | 0.891 | 0.821 | 0.884 | 0.86 | 0.394 | 0.606 | 0.395 | 0.423 | 0.429 | 0.873 | 1.04 | 0.837 | 0.917 | 0.838 |
